According to paper PMC7827406, “Structure–Activity Relationship (SAR) Study of Spautin-1 to Entail the Discovery of Novel NEK4 Inhibitors” (International Journal of Molecular Sciences, 2021):
Read-outs that look alike come from different tables or passages of the source.

Key:
Test in all cases: biochemical
Design in all cases: Eurofins KinaseProfiler full panel at Km ATP, residual kinase activity (%) relative to DMSO
[1] = biological target: CDK12/cyclinK(h) (Homo sapiens, UniProt Q9NYV4)
How it was run: (§1)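 Radiometric kinase activity assays were run with ATP at Km and compounds at 10 µM, and remaining activity (%) was reported. A separate competitive binding screen measured DNA-tagged kinase displaced from immobilized active-site ligands by qPCR, giving percent kinase still bound at 10 µM compound in DMSO.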

[2] = biological target: T1, GRK3(h) (Homo sapiens, UniProt P35626)
T1 sequence (P35626 1-688): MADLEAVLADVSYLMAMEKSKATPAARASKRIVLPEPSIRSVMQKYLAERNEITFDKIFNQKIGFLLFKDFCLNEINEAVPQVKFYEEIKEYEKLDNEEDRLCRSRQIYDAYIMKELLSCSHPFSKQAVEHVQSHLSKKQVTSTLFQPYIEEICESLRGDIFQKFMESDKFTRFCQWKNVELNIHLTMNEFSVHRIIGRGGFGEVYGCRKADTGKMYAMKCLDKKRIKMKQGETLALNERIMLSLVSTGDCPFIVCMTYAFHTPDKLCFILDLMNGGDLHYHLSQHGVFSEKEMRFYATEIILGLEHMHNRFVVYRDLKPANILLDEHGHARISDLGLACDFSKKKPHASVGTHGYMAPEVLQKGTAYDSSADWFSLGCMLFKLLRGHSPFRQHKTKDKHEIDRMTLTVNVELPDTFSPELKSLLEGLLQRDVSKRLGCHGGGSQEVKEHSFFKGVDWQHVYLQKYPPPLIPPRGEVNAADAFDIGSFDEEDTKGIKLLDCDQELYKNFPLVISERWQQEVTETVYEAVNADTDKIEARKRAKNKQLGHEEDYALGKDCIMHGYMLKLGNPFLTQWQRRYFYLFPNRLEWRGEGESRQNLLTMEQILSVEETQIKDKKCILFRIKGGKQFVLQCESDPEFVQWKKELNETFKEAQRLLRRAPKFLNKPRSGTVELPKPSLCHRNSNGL
How it was run: as §1

[3] = biological target: T2, NLK(h) (Homo sapiens, UniProt Q9UBE8)
T2 sequence (Q9UBE8 1-527): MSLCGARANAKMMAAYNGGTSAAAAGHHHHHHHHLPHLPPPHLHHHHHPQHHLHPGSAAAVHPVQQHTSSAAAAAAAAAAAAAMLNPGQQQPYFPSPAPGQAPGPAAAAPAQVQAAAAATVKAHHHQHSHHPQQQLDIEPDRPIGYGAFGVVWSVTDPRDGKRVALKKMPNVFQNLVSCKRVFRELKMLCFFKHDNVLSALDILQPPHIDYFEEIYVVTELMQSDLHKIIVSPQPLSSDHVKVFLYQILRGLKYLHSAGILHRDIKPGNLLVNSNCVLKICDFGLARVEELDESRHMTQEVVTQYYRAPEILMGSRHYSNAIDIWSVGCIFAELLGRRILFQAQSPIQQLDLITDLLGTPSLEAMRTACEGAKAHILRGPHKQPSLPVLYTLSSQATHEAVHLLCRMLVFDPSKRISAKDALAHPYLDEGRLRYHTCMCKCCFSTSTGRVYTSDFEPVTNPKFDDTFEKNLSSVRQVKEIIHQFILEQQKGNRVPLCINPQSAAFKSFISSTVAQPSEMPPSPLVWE
How it was run: as §1

[4] = biological target: T3, OSR1(h) (Homo sapiens, UniProt O95747)
T3 construct: gene OXSR1
T3 sequence (O95747 whole entry): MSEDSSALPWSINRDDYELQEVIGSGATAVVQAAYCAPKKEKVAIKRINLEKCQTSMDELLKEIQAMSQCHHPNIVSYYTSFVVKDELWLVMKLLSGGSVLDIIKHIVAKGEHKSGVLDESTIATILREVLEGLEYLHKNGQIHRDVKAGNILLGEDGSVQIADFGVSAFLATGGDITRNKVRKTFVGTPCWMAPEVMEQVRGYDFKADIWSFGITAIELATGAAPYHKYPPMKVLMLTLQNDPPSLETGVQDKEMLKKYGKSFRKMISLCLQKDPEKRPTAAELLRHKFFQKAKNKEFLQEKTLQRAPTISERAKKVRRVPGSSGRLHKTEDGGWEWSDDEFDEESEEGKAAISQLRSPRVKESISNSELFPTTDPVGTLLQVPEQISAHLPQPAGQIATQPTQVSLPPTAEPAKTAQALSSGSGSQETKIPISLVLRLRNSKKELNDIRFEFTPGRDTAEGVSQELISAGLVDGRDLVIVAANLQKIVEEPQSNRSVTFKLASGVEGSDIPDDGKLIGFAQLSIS
How it was run: as §1

[5] = biological target: T4, Rsk1(r) (Rattus norvegicus, UniProt Q63531)
T4 construct: gene Rps6ka1
T4 sequence (Q63531 whole entry): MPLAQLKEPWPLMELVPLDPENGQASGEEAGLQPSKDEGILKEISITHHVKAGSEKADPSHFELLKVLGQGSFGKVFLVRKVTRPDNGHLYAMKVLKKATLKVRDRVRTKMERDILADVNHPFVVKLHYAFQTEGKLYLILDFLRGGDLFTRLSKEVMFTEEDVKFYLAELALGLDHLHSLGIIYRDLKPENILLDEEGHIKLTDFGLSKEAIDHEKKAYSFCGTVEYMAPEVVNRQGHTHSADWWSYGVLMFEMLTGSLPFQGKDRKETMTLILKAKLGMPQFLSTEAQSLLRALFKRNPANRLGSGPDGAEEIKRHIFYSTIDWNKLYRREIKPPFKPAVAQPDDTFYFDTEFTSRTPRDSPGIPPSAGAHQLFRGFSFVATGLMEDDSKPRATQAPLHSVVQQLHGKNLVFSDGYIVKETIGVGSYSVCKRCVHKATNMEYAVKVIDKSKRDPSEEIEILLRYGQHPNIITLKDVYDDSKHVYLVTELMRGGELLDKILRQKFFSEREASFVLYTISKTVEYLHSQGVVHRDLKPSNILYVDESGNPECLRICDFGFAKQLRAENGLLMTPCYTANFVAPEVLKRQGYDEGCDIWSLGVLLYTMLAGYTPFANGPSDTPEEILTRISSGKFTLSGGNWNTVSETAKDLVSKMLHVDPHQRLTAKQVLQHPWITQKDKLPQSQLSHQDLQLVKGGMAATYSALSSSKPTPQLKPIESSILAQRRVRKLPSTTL
How it was run: as §1

[6] = biological target: T5, ZIPK(h) (Homo sapiens, UniProt O43293)
T5 construct: gene DAPK3
T5 sequence (O43293 whole entry): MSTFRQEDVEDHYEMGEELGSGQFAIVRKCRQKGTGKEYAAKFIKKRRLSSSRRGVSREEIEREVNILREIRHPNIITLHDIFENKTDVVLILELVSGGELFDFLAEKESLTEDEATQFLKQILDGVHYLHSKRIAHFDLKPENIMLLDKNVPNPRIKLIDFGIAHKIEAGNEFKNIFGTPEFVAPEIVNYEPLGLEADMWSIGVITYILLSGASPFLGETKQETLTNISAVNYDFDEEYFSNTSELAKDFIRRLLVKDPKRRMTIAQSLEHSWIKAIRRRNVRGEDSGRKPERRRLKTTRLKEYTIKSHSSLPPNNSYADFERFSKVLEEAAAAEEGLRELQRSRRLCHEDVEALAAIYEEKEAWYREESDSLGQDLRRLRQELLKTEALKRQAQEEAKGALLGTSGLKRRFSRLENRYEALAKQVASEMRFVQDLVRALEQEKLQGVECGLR
How it was run: as §1

[7] = read-out: Residual activity (%) Spautin-1 5aa
[8] = read-out: Residual activity (%) 5as
[9] = read-out: Residual activity (%) 5at
[10] = read-out: Residual activity (%) 5ay

CDK12/cyclinK(h), sequence (Q9NYV4 whole entry): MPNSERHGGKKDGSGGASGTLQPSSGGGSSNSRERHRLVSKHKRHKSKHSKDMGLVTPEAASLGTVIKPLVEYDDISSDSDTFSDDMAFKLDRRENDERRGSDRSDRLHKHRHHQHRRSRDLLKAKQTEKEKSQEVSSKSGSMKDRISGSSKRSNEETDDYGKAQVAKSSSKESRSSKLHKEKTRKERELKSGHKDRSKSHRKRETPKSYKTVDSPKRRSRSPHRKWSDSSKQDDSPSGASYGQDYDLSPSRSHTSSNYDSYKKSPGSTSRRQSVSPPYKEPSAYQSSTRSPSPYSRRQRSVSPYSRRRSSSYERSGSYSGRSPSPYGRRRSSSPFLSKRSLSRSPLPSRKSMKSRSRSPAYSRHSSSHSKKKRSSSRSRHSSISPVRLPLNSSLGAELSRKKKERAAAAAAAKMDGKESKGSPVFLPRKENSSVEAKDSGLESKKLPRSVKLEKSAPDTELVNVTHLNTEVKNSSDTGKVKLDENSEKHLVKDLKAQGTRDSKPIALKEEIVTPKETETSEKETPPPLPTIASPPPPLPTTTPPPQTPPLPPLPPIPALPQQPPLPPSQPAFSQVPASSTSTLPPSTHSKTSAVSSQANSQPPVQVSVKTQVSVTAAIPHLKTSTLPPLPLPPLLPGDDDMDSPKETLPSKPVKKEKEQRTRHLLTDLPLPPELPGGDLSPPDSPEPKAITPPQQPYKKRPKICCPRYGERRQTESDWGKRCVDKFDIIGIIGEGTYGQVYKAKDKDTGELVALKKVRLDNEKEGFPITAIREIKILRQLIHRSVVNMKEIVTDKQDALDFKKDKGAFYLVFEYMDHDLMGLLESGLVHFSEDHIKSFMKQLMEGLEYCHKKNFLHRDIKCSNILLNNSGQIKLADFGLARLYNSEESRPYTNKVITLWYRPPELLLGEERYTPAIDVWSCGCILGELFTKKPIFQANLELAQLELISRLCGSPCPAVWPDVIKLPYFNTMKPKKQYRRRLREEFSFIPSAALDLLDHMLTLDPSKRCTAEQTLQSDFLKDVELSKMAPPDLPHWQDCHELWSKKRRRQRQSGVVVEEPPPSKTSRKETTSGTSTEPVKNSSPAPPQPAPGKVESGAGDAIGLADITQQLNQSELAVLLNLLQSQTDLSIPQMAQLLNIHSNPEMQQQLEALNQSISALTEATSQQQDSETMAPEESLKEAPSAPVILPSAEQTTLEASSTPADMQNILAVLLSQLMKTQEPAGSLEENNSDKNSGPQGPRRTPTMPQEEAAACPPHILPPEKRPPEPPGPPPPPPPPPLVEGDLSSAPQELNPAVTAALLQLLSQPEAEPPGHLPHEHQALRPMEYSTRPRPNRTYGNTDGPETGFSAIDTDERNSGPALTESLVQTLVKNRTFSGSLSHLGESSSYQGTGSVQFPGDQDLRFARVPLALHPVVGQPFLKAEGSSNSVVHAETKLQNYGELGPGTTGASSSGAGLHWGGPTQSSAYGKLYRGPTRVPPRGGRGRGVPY
CDK12/cyclinK(h), sequence (O75909 whole entry partner): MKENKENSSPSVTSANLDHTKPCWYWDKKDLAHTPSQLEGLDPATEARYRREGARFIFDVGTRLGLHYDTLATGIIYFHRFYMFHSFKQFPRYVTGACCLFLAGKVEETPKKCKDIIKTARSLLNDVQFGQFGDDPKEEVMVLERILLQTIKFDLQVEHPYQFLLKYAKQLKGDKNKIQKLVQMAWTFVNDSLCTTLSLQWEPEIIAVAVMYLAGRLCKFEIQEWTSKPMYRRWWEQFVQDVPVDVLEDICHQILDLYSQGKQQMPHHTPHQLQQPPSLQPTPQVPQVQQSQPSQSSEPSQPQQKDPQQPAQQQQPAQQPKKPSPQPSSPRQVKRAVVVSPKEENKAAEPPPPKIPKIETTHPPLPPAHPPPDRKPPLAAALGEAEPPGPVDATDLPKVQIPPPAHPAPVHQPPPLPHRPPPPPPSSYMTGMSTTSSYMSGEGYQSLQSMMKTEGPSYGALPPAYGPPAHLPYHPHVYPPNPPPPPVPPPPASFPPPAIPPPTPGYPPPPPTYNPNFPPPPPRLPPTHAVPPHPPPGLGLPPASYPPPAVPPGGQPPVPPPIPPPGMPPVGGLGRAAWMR

## Fc1ccc(CNc2ncnc3ccc(F)cc23)cc1 [5aa, 6-Fluoro-N-(4-fluorobenzyl)-4-Quinazolinamine]
[1]; [7]
  remaining activity at 10 µM: 84%
[2]; [7]
  remaining activity at 10 µM: 95%
[3]; [7]
  remaining activity at 10 µM: 85%
[4]; [7]
  remaining activity at 10 µM: 100%
[5]; [7]
  remaining activity at 10 µM: 117%
[6]; [7]
  remaining activity at 10 µM: 97%

## Fc1ccc(CCNc2ncnc3ccc(F)cc23)cc1 [5as, 6-Fluoro-N-[2-(4-Fluorophenyl)Ethyl]-4-Quinazolinamine]
[1]; [8]
  remaining activity at 10 µM: 72%
[2]; [8]
  remaining activity at 10 µM: 92%
[3]; [8]
  remaining activity at 10 µM: 93%
[4]; [8]
  remaining activity at 10 µM: 95%
[5]; [8]
  remaining activity at 10 µM: 130%
[6]; [8]
  remaining activity at 10 µM: 103%

## Fc1ccc2ncnc(NCCc3ccc(Cl)cc3)c2c1 [5at, N-[2-(4-Chlorophenyl)Ethyl]-6-Fluoro-4-Quinazolinamine]
[1]; [9]
  remaining activity at 10 µM: 93%
[2]; [9]
  remaining activity at 10 µM: 97%
[3]; [9]
  remaining activity at 10 µM: 82%
[4]; [9]
  remaining activity at 10 µM: 108%
[5]; [9]
  remaining activity at 10 µM: 113%
[6]; [9]
  remaining activity at 10 µM: 109%

## COc1ccc2ncnc(Nc3cccc(F)c3)c2c1 [5ay, N-(3-Fluorophenyl)-6-Methoxy-4-Quinazolinamine]
[1]; [10]
  remaining activity at 10 µM: 69%
[2]; [10]
  remaining activity at 10 µM: 93%
[3]; [10]
  remaining activity at 10 µM: 80%
[4]; [10]
  remaining activity at 10 µM: 107%
[5]; [10]
  remaining activity at 10 µM: 129%
[6]; [10]
  remaining activity at 10 µM: 108%
